The target in data set [1] is T1, Cytochrome P450 1A2 (Homo sapiens, UniProt P05177).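 Also: PubChem cytochrome P450 panel assay, CYP1A2 panel member.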
T1 sequence (P05177 whole entry): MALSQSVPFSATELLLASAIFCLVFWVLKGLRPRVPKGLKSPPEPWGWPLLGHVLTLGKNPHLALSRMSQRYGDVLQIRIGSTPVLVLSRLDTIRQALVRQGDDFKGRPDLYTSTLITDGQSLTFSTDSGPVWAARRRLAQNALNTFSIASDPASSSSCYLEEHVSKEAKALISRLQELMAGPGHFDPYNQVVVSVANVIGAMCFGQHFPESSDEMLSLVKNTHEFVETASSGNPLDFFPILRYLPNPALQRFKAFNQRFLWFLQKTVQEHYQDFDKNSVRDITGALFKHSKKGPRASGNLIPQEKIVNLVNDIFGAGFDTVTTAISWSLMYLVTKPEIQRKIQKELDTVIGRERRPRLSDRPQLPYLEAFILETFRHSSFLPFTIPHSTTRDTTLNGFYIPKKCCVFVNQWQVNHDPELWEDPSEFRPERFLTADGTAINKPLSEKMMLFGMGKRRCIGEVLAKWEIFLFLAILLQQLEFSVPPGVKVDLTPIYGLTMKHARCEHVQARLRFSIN

The target of data set [2] is Cytochrome P450 2C19 (Homo sapiens, UniProt P33261). In words: Cytochrome panel assay with activity outcomes. Panel member name: p450-cyp2c19 Compounds with AC50 equal or less than 10 uM are considered active. In kind it is functional.
Chain of Cytochrome P450 2C19 (P33261 whole entry): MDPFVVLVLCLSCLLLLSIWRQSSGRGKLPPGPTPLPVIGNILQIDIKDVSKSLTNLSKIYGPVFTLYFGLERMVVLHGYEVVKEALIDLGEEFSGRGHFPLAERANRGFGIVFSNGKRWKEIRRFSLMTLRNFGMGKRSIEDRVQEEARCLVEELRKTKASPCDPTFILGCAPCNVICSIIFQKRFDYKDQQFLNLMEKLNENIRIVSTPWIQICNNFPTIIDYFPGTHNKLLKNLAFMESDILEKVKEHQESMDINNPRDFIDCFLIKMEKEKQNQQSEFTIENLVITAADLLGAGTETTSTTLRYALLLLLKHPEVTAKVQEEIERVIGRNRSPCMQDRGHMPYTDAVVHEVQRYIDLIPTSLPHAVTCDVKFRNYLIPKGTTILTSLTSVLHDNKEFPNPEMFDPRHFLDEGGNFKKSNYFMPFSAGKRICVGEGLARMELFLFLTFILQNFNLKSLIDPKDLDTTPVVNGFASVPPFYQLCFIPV
The nature of data set [3]: Trypanosoma cruzi growth suppression in host cells – NIH3T3 host cells, beta-gal luminescence, confirmation (AID 2044).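 Also: intracellular parasites grown in NIH/3T3 mouse fibroblasts as host cells; luminescent beta-galactosidase reporter signal from transgenic T. cruzi replicating inside host cells; inhibitors lower the luminescence signal.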 Type of data set: functional, cell-based.
Data set [4] can be described thus: NIH3T3 cell viability loss – ATP luminescence, mouse fibroblasts, counter-screen, dose response (AID 2010).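 Also: cells exposed to compound for about 90 hours before reading.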 In kind it is functional, cell-based. (A counterscreen serves to expose hits that act by an unwanted route or on another target.)
The subject of data set [5] is Streptococcus sp. 'group A'. As to the kind of experiment: Streptococcus pyogenes SK(-)GAS viability under kanamycin – luminescence, BacTiterGlo, confirmation, counter-screen for streptokinase expression inhibitor project, dose response (AID 1900). Type of data set: functional, organism-based.
For data set [6], the system named is Streptococcus. In words: GAS UMAA2166 growth inhibition – luminescence, BacTiterGlo, counter-screen for streptokinase expression inhibitor project, dose response (AID 1915).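 Also: potency for reduction of bacterial viability or growth.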 Type of data set: functional, organism-based.
Data set [7] has as its target T2, Streptokinase A (Streptococcus pyogenes serotype M1, UniProt P10520).
T2 sequence (P10520 whole entry): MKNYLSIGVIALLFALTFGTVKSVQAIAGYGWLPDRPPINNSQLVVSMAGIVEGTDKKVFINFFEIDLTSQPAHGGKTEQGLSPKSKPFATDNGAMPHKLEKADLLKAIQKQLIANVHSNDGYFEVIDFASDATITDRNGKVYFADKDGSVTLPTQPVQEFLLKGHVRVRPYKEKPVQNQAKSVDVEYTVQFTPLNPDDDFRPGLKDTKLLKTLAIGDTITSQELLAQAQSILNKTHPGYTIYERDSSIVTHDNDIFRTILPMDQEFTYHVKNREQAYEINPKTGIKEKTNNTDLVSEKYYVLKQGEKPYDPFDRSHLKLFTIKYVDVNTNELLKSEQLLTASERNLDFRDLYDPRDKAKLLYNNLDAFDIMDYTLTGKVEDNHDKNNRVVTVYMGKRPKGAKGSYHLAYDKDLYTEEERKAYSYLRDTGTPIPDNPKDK
In words: viability-normalized secreted streptokinase activity reduction – plasminogen activation absorbance, OD405, dose response (AID 1914).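 Also: secreted streptokinase activity via plasminogen activation per viability signal from cell pellet.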 In kind it is functional, Streptococcus pyogenes M1 GAS.

The target of data set [8] is Cytochrome P450 2C9 (Homo sapiens, UniProt P11712).
Chain of Cytochrome P450 2C9 (P11712 whole entry): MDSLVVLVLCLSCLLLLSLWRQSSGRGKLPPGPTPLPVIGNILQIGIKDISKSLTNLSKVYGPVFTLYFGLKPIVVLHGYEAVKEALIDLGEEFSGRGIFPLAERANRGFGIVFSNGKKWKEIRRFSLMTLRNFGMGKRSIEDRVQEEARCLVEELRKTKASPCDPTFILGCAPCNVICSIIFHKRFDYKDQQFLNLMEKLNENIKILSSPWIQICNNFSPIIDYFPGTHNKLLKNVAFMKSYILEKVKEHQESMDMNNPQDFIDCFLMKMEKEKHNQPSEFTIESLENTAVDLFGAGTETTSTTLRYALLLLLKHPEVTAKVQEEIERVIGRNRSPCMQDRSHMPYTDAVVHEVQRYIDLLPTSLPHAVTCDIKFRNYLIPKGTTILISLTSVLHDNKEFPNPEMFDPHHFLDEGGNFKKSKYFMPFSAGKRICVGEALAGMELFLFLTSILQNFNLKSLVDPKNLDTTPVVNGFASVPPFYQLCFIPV

Calls of active or inactive are those of the source.

Take `C[N+](C)(CCCCCC[N+](C)(C)CCCN1C(=O)c2ccccc2C1=O)CCCN1C(=O)c2ccccc2C1=O`: the AC50 in data set [1] and in data set [2] (read-out: AC50) was 31.6 µM (inconclusive) throughout.

For the molecule `CC(C)CNc1nc(N)nc(O)c1NC=O`, in data set [2], the concentration at half-maximal activity (AC50) result is given as “inconclusive”. As for `CCOC(=O)C1CCCN(C(=O)c2cc3nc(-c4ccc5c(c4)OCO5)cc(C(F)(F)F)n3n2)C1` (configuration not stated), in data set [1], the AC50 is 25.1 µM (inconclusive). As to `Cc1c(C(=O)OC(C)CCN(C)C)oc2ccccc12` (configuration not stated), the EC50 in data set [3] is 0.574 µM (active); in data set [4] it was > 30 µM (not active). On to `O=C(O)c1ccc(N/N=C/c2ccc(-c3ccc(Br)cc3)o2)cc1`, for which the results for the EC50 in data set [5] and in data set [6] were 4.26 µM (active) and 3.02 µM (active), respectively. Turning to `O=C(NNc1ccccc1Cl)C(O)(c1cccc(C(F)(F)F)c1)c1cccc(C(F)(F)F)c1`, the EC50 was 3.16 µM (active) in data set [7], 2.65 µM (active) in data set [5] and 17.4 µM (active) in data set [6]. For `COc1cc2c(cc1OC)CN(C(=O)COc1ccc(C)c(C)c1)CC2`, the figures for the 50% effective concentration (EC50) in data set [3] and in data set [4] were 2.93 µM (active) and > 60 µM (not active), respectively.

As to `O=C(O)CSCNC(=O)CC12CC3CC(CC(C3)C1)C2`, the AC50 in data set [2] (read-out: AC50) is 28.2 µM (inconclusive). Turning to `COc1cccc(Cn2c(=O)c(C)nc3cnc(Oc4cccc(Cl)c4)nc32)c1`, the concentration at half-maximal activity (AC50) in data set [1] was 25.1 µM (inconclusive). Regarding `CCOC(=O)c1c(NC(=O)COC(=O)c2ccc(C)s2)sc2c1CC(C)(C)NC2(C)C`, the concentration giving a half-maximal response (EC50) in data set [7] was > 150 µM (not active); in data set [5], 2.43 µM (active); in data set [6] it was 26.8 µM (active).

Consider `COc1ccccc1Nc1nc(N)nc(CSC(=S)N2CCN(c3ccccc3)CC2)n1`, for which the EC50 in data set [3] is 2.57 µM (active); in data set [4] it was > 60 µM (not active). On to `Cc1cccc(NC(=O)c2sc(Cl)nc2-c2ccccc2)c1`, for which the half-maximal effective concentration (EC50) is > 150 µM (not active) in data set [7], 5 µM (active) in data set [5] and 19.3 µM (active) in data set [6]. For the molecule `O=C(NNC(=S)NC(=O)c1cccnc1)c1ccc(Cl)cc1`, the EC50 is 5.07 µM (active) in data set [5] and 11.4 µM (active) in data set [6].

As for `COC(=O)c1[nH]c2cc(OC)ccc2c1NC(=O)CCN1CCSCC1`, the half-maximal activity concentration (AC50) in data set [8] is 22.4 µM (inconclusive). As to `NC[C@@H](O)CSCc1ccc(Cl)cc1`, the AC50 in data set [2] (read-out: AC50) was 0.1 µM (inconclusive). In the case of `COc1ccc(N/C=C2/Sc3ccccc3NC2=O)cc1`, the results for the concentration for a half-maximal effect (EC50) in data set [3] and in data set [4] were 1.22 µM (active) and > 30 µM (not active), respectively. For `O=C(NCC1CCN(Cc2ccccc2Cl)CC1)Nc1cccc(Cl)c1`, the values for the concentration for a half-maximal effect (EC50) in data set [7], in data set [5] and in data set [6] were 49.3 µM (active), > 150 µM (not active) and > 150 µM (not active), respectively.

For `COc1ccc(CNc2ccnc(-c3ccc(C(=O)N(C)C)cc3)n2)c(OC)c1`, the AC50 in data set [1] was 12.6 µM (inconclusive); in data set [2] (read-out: AC50), 20 µM (inconclusive). As to `COC(=O)[C@@]1(Cc2ccc(F)cc2)[C@H]2c3cc(C(=O)N4CCCC4)n(Cc4ccc(Cl)c(C(F)(F)F)c4)c3C[C@H]2CN1C(=O)c1ccccc1`, the concentration at half-maximal activity (AC50) in data set [2] (read-out: AC50) is 31.6 µM (inconclusive). In the case of `COc1cc(-c2nnc(SCC3(c4ccc(Br)cc4)OCCO3)o2)cc(OC)c1OC`, the AC50 in data set [8] was 39.8 µM (inconclusive). As for `CC1CCN(CCCCOc2ccccc2[N+](=O)[O-])CC1`, in data set [2] (read-out: AC50), the AC50 was 15.8 µM (inconclusive). On to `COCCn1c(C)cc(C2=NN=C(Nc3ccc(F)cc3)SC2)c1C`, for which, in data set [1], the AC50 was 11.2 µM (inconclusive). `CCc1ccc(Nc2n[n+](-c3ccccc3)c(-c3ccc(OCc4ccccc4)cc3)s2)cc1`: the EC50 was 2.01 µM (active) in data set [3] and > 30 µM (not active) in data set [4]. As to `CC(C)N1CCN(Cc2ccc3c(c2)Cc2ccccc2-3)CC1CCO` (configuration not stated), the concentration giving a half-maximal response (EC50) in data set [3] was 0.532 µM (active); in data set [4] it was 7.87 µM (active). For the molecule `CCC(=O)OCN1C(=O)C=CC1=O`, the concentration at half-maximal activity (AC50) in data set [2] (read-out: AC50) was 0.002 µM (inconclusive). Take `Cc1[nH]c2ccc(F)cc2c1CCN(Cc1cccnc1)C(S)=NC(C)(C)C`: the EC50 was 0.577 µM (active) in data set [3] and > 60 µM (not active) in data set [4].

With `Cc1cc(C)n2nc(C(=O)NCc3cccc(C(F)(F)F)c3)nc2n1`, the results for the concentration for a half-maximal effect (EC50) in data set [3] and in data set [4] were > 60 µM (not active) and > 60 µM (inconclusive), respectively. Turning to `CC1=CC(C)(C)Nc2ccc(CSc3ccccc3)cc21`, the AC50 in data set [1] is 0.501 µM (inconclusive). The same measure, in the same setting: as for `CC(=O)Nc1ccc(NC(=O)CSc2nnc(-c3ccccc3)n2Cc2ccc3c(c2)OCO3)cc1`, the figure is 31.6 µM (inconclusive). For the molecule `CC(CC(=O)O)(CC(=O)O)c1ccccc1`, the half-maximal activity concentration (AC50) entry in data set [2] is given as “inconclusive”. In the case of `Cc1cc(C)c(-c2csc(NC(=O)c3cc([N+](=O)[O-])ccc3N3CCOCC3)n2)c(C)c1`, the EC50 was 1.44 µM (active) in data set [3] and > 30 µM (not active) in data set [4].

On to `CCCN(CCO)Cc1ccc(F)c(Br)c1`, for which the AC50 is 15.8 µM (inconclusive) in data set [1] and 0.126 µM (inconclusive) in data set [8]. With `O=C(Oc1cccc(Br)c1)c1cccnc1`, the half-maximal activity concentration (AC50) in data set [2] (read-out: AC50) and in data set [8] was 39.8 µM (inconclusive) each time. On to `FC(F)(F)c1cccc(NC(S)=NN=C(S)Nc2cccc(C(F)(F)F)c2)c1`, for which the concentration giving a half-maximal response (EC50) in data set [5] is 1.65 µM (active); in data set [6] it was 4.04 µM (active).

`CC1C(=O)C(C)C(c2ccc([N+](=O)[O-])cc2)NC1c1ccc([N+](=O)[O-])cc1` (configuration not stated): the EC50 in data set [3] was 0.632 µM (active); in data set [4], > 30 µM (not active).

Take `O=C(NCCc1c[nH]c2ccccc12)[C@@H]1C[C@H]1[C@@H](NP(=O)(c1ccccc1)c1ccccc1)c1ccccc1`: in data set [1], the half-maximal activity concentration (AC50) is 15.8 µM (inconclusive). For `COc1ccc(-c2nc3cnc(Nc4ccccc4)nc3n(CCC#N)c2=O)cc1`, the AC50 in data set [1] is 0.501 µM (inconclusive). With `Cc1ccccc1OCCn1cnc2cc([N+](=O)[O-])ccc2c1=O`, the EC50 in data set [3] was 0.615 µM (active); in data set [4] it was > 30 µM (not active). With `CC(=O)NC1(c2cccc(F)c2)CCN(CC(=O)NC(C)C)CC1`, in data set [2] (read-out: AC50), the concentration at half-maximal activity (AC50) is 39.8 µM (inconclusive).

Turning to `CNCCCCCCCCSc1nc(C(C)C)ccc1C(=O)c1cccs1`, the concentration at half-maximal activity (AC50) in data set [8] was 25.1 µM (inconclusive). Turning to `O=C(NCC(c1cccs1)N1CCOCC1)c1ccco1` (configuration not stated), the AC50 in data set [8] is 22.4 µM (inconclusive). With `CC(C)(CN1CCN(C(c2ccccc2)c2ccccc2)CC1)NS(=O)(=O)c1ccccc1`, the EC50 in data set [3] was 1.7 µM (active); in data set [4], > 60 µM (not active). For the molecule `Cc1cc(Cl)ccc1OCC(=O)N/N=C1\CCCc2ccccc21`, the results for the AC50 in data set [1] and in data set [8] were 2.51 µM (inconclusive) and 3.55 µM (inconclusive), respectively. In the case of `Cc1cc(N)n2ncc(-c3ccc(Cl)cc3)c2n1`, the half-maximal activity concentration (AC50) in data set [8] was 31.6 µM (inconclusive). As to `Cc1cc(Br)ccc1OCCN1CCCC1`, the concentration giving a half-maximal response (EC50) is 0.651 µM (active) in data set [3] and 58.7 µM (active) in data set [4]. As for `CSc1ccccc1NC(=S)N/N=C/c1cccn1Cc1cccc(C)c1`, the 50% effective concentration (EC50) was 2.35 µM (active) in data set [3] and > 60 µM (not active) in data set [4]. For the molecule `Oc1ccc(Br)cc1/C=N/Nc1ncc(-c2ccccc2)cn1`, the EC50 in data set [5] was 1.51 µM (active); in data set [6], 2.68 µM (active). Regarding `Cn1cccc1C(=O)N1CCC[C@@]2(CCN(C(c3ccccc3)c3ccccc3)C2)C1`, the concentration at half-maximal activity (AC50) in data set [2] (read-out: AC50) is 25.1 µM (inconclusive); in data set [8], 39.8 µM (inconclusive).

`COCCNc1nc(-c2cccc(OC)c2)nc2ccccc12`: in data set [2] (read-out: AC50), the AC50 was 31.6 µM (inconclusive). Consider `CCn1ccnc1CN(C)Cc1cn(-c2ccc(C)cc2)nc1-c1cccc(C)c1`, for which the EC50 in data set [3] was 1.92 µM (active); in data set [4], > 60 µM (not active). On to `Cc1nc2sccn2c(=O)c1Cl`, for which, in data set [1], the AC50 was 15.8 µM (inconclusive). Consider `Cc1cc(N)n(-c2ccccc2)n1`, for which the AC50 is 31.6 µM (inconclusive) in data set [1] and 2.24 µM (inconclusive) in data set [2] (read-out: AC50). Consider `Clc1ccc2c(c1)C=Nc1c(NCc3ccccc3)ncnc1O2`, for which the AC50 in data set [1] is 0.631 µM (inconclusive).

Broadly, the AC50 is the concentration at which the activity in the assay is half-maximal. A word on the EC50: it is the midpoint of the concentration-response curve.
